US9738642B2, “Triazolopyridine ether derivatives and their use in neurological and pyschiatric disorders” (BRISTOL-MYERS SQUIBB COMPANY, priority 2013, dated 2017)
Where a name gives a salt, the structure may show the parent alone.

molecular target: T1, human mGluR2 (Homo sapiens, UniProt Q14416); assay: mGluR2 cAMP assay; format: cell-based; conditions: clonally expressed human mGluR2 in HEK293; 1 μM forskolin, 1 μM LY-341495, 30 min; CISBIO cAMP kit; read-out: EC50 (nM), activity in mGluR2 cAMP assay
T1 construct: expressed in transfected cells; host or cells: HEK293 clonal line
T1 sequence (Q14416 19-872): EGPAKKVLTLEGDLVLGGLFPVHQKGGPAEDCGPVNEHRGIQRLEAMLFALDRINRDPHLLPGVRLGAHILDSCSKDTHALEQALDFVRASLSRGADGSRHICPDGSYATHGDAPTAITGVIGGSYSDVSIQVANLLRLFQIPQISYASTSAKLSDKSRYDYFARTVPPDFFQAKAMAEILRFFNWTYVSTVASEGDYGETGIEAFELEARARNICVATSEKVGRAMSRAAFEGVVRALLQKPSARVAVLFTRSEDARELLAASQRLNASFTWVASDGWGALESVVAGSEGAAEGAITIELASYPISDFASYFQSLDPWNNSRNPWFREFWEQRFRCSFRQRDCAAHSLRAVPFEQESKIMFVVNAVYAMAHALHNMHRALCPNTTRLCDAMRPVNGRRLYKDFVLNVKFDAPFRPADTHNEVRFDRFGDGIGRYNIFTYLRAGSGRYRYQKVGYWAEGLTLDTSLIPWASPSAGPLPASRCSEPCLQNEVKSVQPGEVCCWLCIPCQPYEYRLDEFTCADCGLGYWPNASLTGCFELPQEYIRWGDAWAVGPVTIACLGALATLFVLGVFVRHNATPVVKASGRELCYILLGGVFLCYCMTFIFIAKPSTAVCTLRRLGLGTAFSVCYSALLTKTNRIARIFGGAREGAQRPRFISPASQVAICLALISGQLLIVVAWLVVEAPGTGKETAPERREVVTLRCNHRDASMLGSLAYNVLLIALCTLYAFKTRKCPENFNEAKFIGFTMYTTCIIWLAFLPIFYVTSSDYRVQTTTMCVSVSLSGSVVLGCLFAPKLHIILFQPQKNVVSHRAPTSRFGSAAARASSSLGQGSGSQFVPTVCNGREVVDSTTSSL

Row | SMILES | EC50 [nM]
1 | COC1(c2ccc(F)cc2)CCC(Oc2ccn3c([C@@H]4C[C@H]4F)nnc3c2C(F)(F)F)CC1 (stereo partly drawn) [Example 91, 3-((1S,2R)-2-Fluorocyclopropyl)-7-((1s,4s)-4-(4-fluorophenyl)-4-methoxycyclohexyloxy)-8-(trifluoromethyl)-[1,2,4]triazolo[4,3-a]pyridine] | 83
2 | CCOCc1nnc2c(C(F)(F)F)c(OCC(C)(C)Oc3ccc(Cl)cc3)ccn12 [Example 18, 7-(2-(4-Chlorophenoxy)-2-methylpropoxy)-3-(ethoxymethyl)-8-(trifluoromethyl)-[1,2,4]triazolo[4,3-a]pyridine] | 5.9
3 | COc1ccc(COc2ccn3c(CC4CC4)nnc3c2Cl)cc1 [Example 70, 8-Chloro-3-(cyclopropylmethyl)-7-(4-methoxybenzyloxy)-[1,2,4]triazolo[4,3-a]pyridine] | 140
4 | FC(F)(F)Oc1ccccc1[C@@H]1C[C@H]1COc1ccn2c(CC3CC3)nnc2c1C(F)(F)F (single isomer, unassigned) [Example 42] | 1.9
5 | O[C@]1(c2ccc(F)c(F)c2)CC[C@H](Oc2ccn3c(CC4CC4)nnc3c2C(F)(F)F)CC1 [Example 26, (1s,4s)-4-(3-(Cyclopropylmethyl)-8-(trifluoromethyl)-[1,2,4]triazolo[4,3-a]pyridin-7-yloxy)-1-(3,4-difluorophenyl)cyclohexanol, TFA salt] | 0.8
6 | CC(C)(COc1ccn2c(COCC(F)(F)F)nnc2c1C(F)(F)F)Oc1ccc(Cl)cc1 [Example 22, 7-(2-(4-Chlorophenoxy)-2-methylpropoxy)-3-((2,2,2-trifluoroethoxy)methyl)-8-(trifluoromethyl)-[1,2,4]triazolo[4,3-a]pyridine, TFA salt] | 4.9
7 | Fc1ccc(C2CC2COc2ccn3c(CC4CC4)nnc3c2C(F)(F)F)cc1 (single isomer, unassigned) [Example 78] | 2.6
8 | COc1cccc(F)c1[C@@H]1C[C@H]1COc1ccn2c(CC3CC3)nnc2c1C(F)(F)F (single isomer, unassigned) [Example 36] | 0.2
9 | Clc1ccccc1COc1ccn2c(CC3CC3)nnc2c1Cl [Example 66, 8-Chloro-7-(2-chlorobenzyloxy)-3-(cyclopropylmethyl)-[1,2,4]triazolo[4,3-a]pyridine] | 11
